“And” between values parts separate entries of the source, which are not always exact repeats. Identical values can stand only once.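 Results reflect a 48-hour exposure of cells in 96-well plates to compound at five concentrations. GI50: concentration for 50% inhibition of growth. TGI: total growth inhibition.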
Tests used:
Experiment in all cases: growth of human tumour cells (NCI), 48 h
[1] = tested on: MCF7 breast
[2] = tested on: NCI/ADR-RES ovarian
[3] = tested on: PC-3 prostate
[4] = tested on: T-47D breast
[5] = tested on: DU-145 prostate
[6] = tested on: DMS 273 small cell lung
[7] = tested on: DMS 114 small cell lung
[8] = tested on: DLD-1 colon

Row | Compound | GI50 [1] [µM] | TGI [1] [µM] | GI50 [2] | TGI [2] | GI50 [3] [µM] | TGI [3] [µM] | GI50 [4] [µM] | TGI [4] [µM] | GI50 [5] | TGI [5] | TGI [6] [µM] | TGI [7] [µM] | TGI [8] [µM]
1 | CCCCCCCC(=O)OCC/C=C/C1OC1C1OC(=O)/C=C\C=C\c2nc(oc2C)/C=C(/C)CCC2OC2C1OC(=O)NC(C)=O (stereo not given) | 0.0368 | 0.481 | 0.165 µM | 1.88 µM | 0.0272 | 1.84 | 0.042 | 0.161 | 0.0526 µM | 1.37 µM | – | – | –
2 | CC(C)(CO)N1CCN(C(=S)Nc2ccccc2)CC1 | – | > 100 | – | > 100 µM | – | > 100 | – | > 100 | – | – | – | – | –
3 | CC/C=C\C[C@H](F)C/C=C1/C(=O)C=C[C@@H]1C/C=C\CCCC(=O)O | 1.32 | > 32.5 | 6.78 µM | > 32.5 µM | 6.09 | 15.7 | 6.37 | 23.2 | 8.02 µM | 32.4 µM | – | – | –
4 | COc1ccc(-c2onc(N)c2-c2cc(OC)c3c(c2)OCO3)cc1 | 0.932 | > 100 | 0.947 µM | > 21.8 µM | 4.69 | > 100 | 4.65 | > 100 | 3.57 µM | > 59.3 µM | – | – | –
5 | Cc1ccc2c(c1)Sc1c(ccc3ccccc13)N2 | > 100 | > 100 | 41.9 µM | > 100 µM | 11.5 | > 100 | 38.3 | > 100 | > 100 µM | > 100 µM | – | – | –
6 | O=C1c2cccc([N+](=O)[O-])c2C(=O)N1c1ncn[nH]1 | – | > 100 | – | > 100 µM | – | > 100 | – | > 100 | – | > 100 µM | – | – | –
7 | O=C(O)CCSC(=O)Nc1ccc([N+](=O)[O-])cc1 | – | – | – | – | – | – | – | – | – | – | > 100 | > 100 | > 100
8 | O=C(CCc1nnc2sc(-c3ccc(Cl)cc3Cl)nn12)c1nc2ccccc2[nH]1 | 0.466 | 2.45 | 1.42 µM | 6.15 µM | 0.865 | 3.62 | 0.916 | 2.92 | 1.15 µM | 2.38 µM | – | – | –
9 | CC/C=C\C[C@@H](O)C/C=C1/C(=O)C=C[C@H]1C/C=C\CCCC(=O)OC | 2.23 | 13.1 | 3.38 µM | 19.7 µM | 3.2 | 10.8 | 4.05 | 19 | 3.33 µM | 12.3 µM | – | – | –
10 | CCOC1Oc2ccc(C)cc2C(=O)/C1=C\Nc1ccc(C(N)=O)cc1 (stereo not given) | 25 | > 100 | 17.7 µM | 44.7 µM | 32.9 | > 100 | 6.13 | > 100 | 21.7 µM | 60.4 µM | – | – | –
11 | O=C(Nc1ccncc1)C(=O)c1cn(S(=O)(=O)c2cccc(F)c2)c2ccccc12 | 0.719 | > 100 | 1.16 µM | 4.66 µM | 5.69 | > 100 | 4.25 | > 100 | 6.2 µM | > 100 µM | – | – | –
12 | O=C(N/C(=C\c1cccc([N+](=O)[O-])c1)c1nc2ccc([N+](=O)[O-])cc2[nH]1)c1ccccc1 | – | – | – | – | – | – | – | – | – | – | > 100 | – | > 100
13 | COc1ccc2c(c1)C(=O)c1c-2n(CCCn2ccnc2)c(=O)c2cc([N+](=O)[O-])ccc12 | < 0.01 | > 100 | < 0.01 µM | 0.192 µM | 0.0168 | > 100 | < 0.01 | – | < 0.01 µM | < 0.0294 µM | – | – | –
14 | CC[C@@]1(c2ccccc2)C2=C(CC(C)(C)CC2=O)Nc2[nH]ncc21 | > 100 | > 100 | > 100 µM | > 100 µM | > 100 | > 100 | > 100 | > 100 | > 100 µM | > 100 µM | – | – | –
15 | CCCC(=O)OCC1OC(n2cnc3c(=S)nc[nH]c32)C(OC(=O)CCC)C1OC(=O)CCC (stereo not given) | 1.95 | > 100 | 8.15 µM | > 100 µM | 3.72 | > 100 | 0.794 | > 100 | 3.06 µM | > 100 µM | – | – | –
16 | O=C(O)CCNC1CCCCC1 | > 100 | > 100 | > 100 µM | > 100 µM | > 100 | > 100 | > 100 | > 100 | > 100 µM | > 100 µM | – | – | –
17 | N#CC(C#N)=C1Nc2ccccc2S1 | 33.5 | > 100 | 23.8 µM | 69.5 µM | 40.1 | > 100 | 35.8 | > 100 | 49.2 µM | > 100 µM | – | – | –
18 | Cc1cc2c(cc1Cl)SC1=NN(C)S(=O)N1S2(=O)=O (stereo not given) | > 100 | > 100 | > 100 µM | > 100 µM | > 100 | > 100 | > 100 | > 100 | > 100 µM | > 100 µM | – | – | –
19 | NC(=O)NS(=O)(=O)c1ccc(N2N=C(C(F)(F)F)CC2c2cc(C(F)(F)F)cc(C(F)(F)F)c2)cc1 (stereo not given) | 1.85 | 4.86 | 6.95 µM | 21.6 µM | 2.35 | 12.2 | 3.73 | 17.2 | 3.54 µM | 15.1 µM | – | – | –
20 | CC(=O)O[C@H]1C(=O)[C@@]2(C)C(C(OC(=O)c3ccccc3)[C@]3(O)CC(OC(=O)[C@H](OC(=O)CCC(=O)O)C(NC(=O)c4ccccc4)c4ccccc4)C(C)=C1C3(C)C)C1(OC(C)=O)COC1C[C@@H]2O (stereo not given in full) | – | > 100 | 8.73 µM and 17.7 µM | 61.9 µM and > 72.3 µM | – | 0.0512 | – | > 100 | < 0.01 µM and 0.0319 µM | 0.0715 µM and 0.193 µM | – | – | –
21 | CS(=O)(=O)c1ccc(-n2nc(C(F)(F)F)cc2OC2CCCC2)cc1 | 25.4 | 80.2 | 25 µM | 81.8 µM | 27.7 | > 100 | 33 | > 100 | 38.9 µM | > 100 µM | – | – | –
22 | C=C(C[C@](O)(C(=O)/C=C/c1ccc(Cl)cc1)C(=O)OC)c1ccccc1 | 0.456 | 4.38 | 3.11 µM | 17.1 µM | 2.7 | 9.04 | 1.29 | 3.65 | 3.03 µM | 10.7 µM | – | – | –
23 | C#CCNC(=O)c1cccc2c1cc(C)n2-c1nc2c(c(NCc3ccccc3)n1)CCCC2 | 0.0151 | 0.142 | 0.0281 µM | 0.101 µM | 0.024 | 0.0717 | 0.0283 | 0.117 | 0.0298 µM | 0.108 µM | – | – | –

Reference: PubChem BioAssay (NCI)
